Measured values from US20250049090A1, “A NUTRITIONAL SUPPLEMENT FOR IMPROVED GUT HEALTH” (Haleon US Holdings LLC, priority 2021, published 2025).

Experiments:
[1] = ZnC supplementation 150 mg/day for 1 week; cited from earlier work
[2] = healthy volunteers under high stress or when diarrhoea was induced; cited from earlier work
total bacteria = assay: In vitro gut model batch culture fermentation, FISH-FCM enumeration of total bacteria (Eub); format: cell-based, human faecal bacteria; conditions: until 48 h, WD experiment; 'except' = not elevated
Procedure: (§1) In vitro gut model batch culture fermentations were run for 72 hours. Samples were collected for bacterial enumeration and organic acid production through fluorescent in situ hybridisation combined with flow cytometry and gas chromatography, respectively. Overall, the main findings were that the ZnC supplementation combined with WD increased in Bifidobacterium spp., and Clostridium histolyticum group but this finding was not shown in the vessels consisting of the ZnC components only. […] Optimising the dose and substrate availability is important to ensure homeostasis and prevent potential pathogenic bacterial growth. […]
(§2) A 750 μl sample was collected from each vessel at timepoints 0, 8, 24, 48 and 72 hours. […] The subsequent pellet was used for bacterial enumeration through fluorescence in situ hybridisation flow-cytometry (FISH-FCM) and 500 μl of supernatant used to assess organic acid production via gas chromatography. […]
(§3) All statistical results were analysed in Prism 8 version 8.4.0 (GraphPad Prism 8, San Diego, California, USA). The FISH-FCM and organic acid production were analysed using two-way mixed ANOVA to compare different test substrates and time points. […]

human gut microbiota = assay: In vitro gut model batch culture fermentation, organic acid production by gas chromatography; format: cell-based; conditions: 'except' = not significantly elevated
Procedure: as §1, §2, §3

## Zinc carnosine [ZnC]
[1]
  UC clinical outcomes and remission: improve
[2]
  intestinal barrier function: maintained or improved
Total bacteria
  total bacteria counts elevated: except
Human gut microbiota; 24, 48 and 72 h, WD experiment
  propionate compared to baseline: except
Human gut microbiota; 72 h, PHGG experiment
  acetate compared to baseline: except
